Experimental data: patent US8598120B2 (Amylin Pharmaceuticals, LLC, priority 2004, dated 2013)
Square brackets hold non-standard residues; d marks the D form. * marks the point of attachment. Pentanoyl(4-Me) = CC(C)CCC(=O)*; Aib = CC(C)(N)C(=O)O; For = O=C*

Assay: Food intake assay in overnight fasted mice
Format: in vivo
Conditions: 25 nmol/kg intraperitoneal
Protocol: Female NIH/Swiss mice (8-14 weeks old) were group housed with a 12:12 hour light:dark cycle. Water and a standard pelleted mouse chow diet are available ad libitum, except as noted. Animals are fasted starting at approximately 1500 hrs, 1 day prior to experiment.
The effects of treatment on food intake are expressed as % change relative to control.

Row | Substance | cumulative food intake compared to vehicle, 30 min | cumulative food intake compared to vehicle, 60 min | cumulative food intake compared to vehicle, 120 min | cumulative food intake compared to vehicle, 180 min
1 | Ac-ACNTATCVLGRLSQELHK(PEG5000)LQTYPRTNTGSNTY [Compound 47] | −5% | −13% | −27% | –
2 | CSNLATCVLGRLSQELHRLQTYPRTNTGSNTY [Compound 22] | −11% | −20% | −31% | −30%
3 | KDNTATKVLGRLSQELHRLQTYPRTNTGSNTY [Compound 69] | −29% | −31% | −45% | –
4 | KCNTATCVLGRLSQELHRLQTYPRTNTGSETF [Compound 91] | −59% | −47% | −26% | −24%
5 | KCNTATCVLGRLADFLHRFHTFPRTNTGSNTY [Compound 108] | −70% | −66% | −38% | –
6 | KCNTAACVLGRLSQELHRLQTYPRTNTGSNTY [Compound 18] | −2% | −7% | −16% | −21%
7 | KCNTATCVLGRLSQELHRLQTLPPTNVGSNTY [Compound 13] | −40% | −33% | −25% | −24%
8 | CNTATCVLGRLADFLHRLQTYPRTNTGSNTY [Compound 110] | −80% | −72% | −59% | –
9 | KCNTATCVLGRLANFLHRLQTYPRTNTGSNTY [Compound 14] | −52% | −36% | −28% | −33%
10 | KCNTSTCATQRLANELVRLQTYPRTNVGSEAF [Compound 84] | −53% | −40% | −20% | –
11 | Isocaproyl-STAVL(Aib)[K(For)]LSQEL(Aib)[K(For)]LQTYPRTNVGSNTY ({Pentanoyl(4-Me)}-STAVL[Aib]K(For)LSQEL[Aib]K(For)LQTYPRTNVGSNTY-NH2; SMILES CC(C)CCC(=O)N[C@@H](CO)C(=O)N[C@H](C(=O)N[C@@H](C)C(=O)N[C@H](C(=O)N[C@@H](CC(C)C)C(=O)NC(C)(C)C(=O)N[C@@H](CCCCNC=O)C(=O)N[C@@H](CC(C)C)C(=O)N[C@@H](CO)C(=O)N[C@@H](CCC(N)=O)C(=O)N[C@@H](CCC(=O)O)C(=O)N[C@@H](CC(C)C)C(=O)NC(C)(C)C(=O)N[C@@H](CCCCNC=O)C(=O)N[C@@H](CC(C)C)C(=O)N[C@@H](CCC(N)=O)C(=O)N[C@H](C(=O)N[C@@H](Cc1ccc(O)cc1)C(=O)N1CCC[C@H]1C(=O)N[C@@H](CCCNC(=N)N)C(=O)N[C@H](C(=O)N[C@@H](CC(N)=O)C(=O)N[C@H](C(=O)NCC(=O)N[C@@H](CO)C(=O)N[C@@H](CC(N)=O)C(=O)N[C@H](C(=O)N[C@@H](Cc1ccc(O)cc1)C(N)=O)[C@@H](C)O)C(C)C)[C@@H](C)O)[C@@H](C)O)C(C)C)[C@@H](C)O) [Compound 32] | −15% | −21% | −31% | –
12 | ACDTATCVLGRLSQELHRLQTYPRTNTGSNTY [Compound 92] | −31% | −29% | −30% | −27%
13 | KCNTATCVLGRLSQELHRYPRTNTGSNTY [Compound 39] | 7% | −14% | −23% | –
